# Like-named read-outs stand apart in the source and are kept apart here.
# Legend:
# [1] = test system: Cholesterol Synthesis in HepG2 Cells; assay: HepG2 cell culture model, 14C-acetate incorporation assay; type: cell-based, human; conditions: for IC50: read-out: IC₅₀; for Rel. Potency: γ-Tocotrienol = 1.0; for inhibition at 10 µM / % Inhibition 14C-Ac: about 4 hours, 10 µM; for inhibition at 10 µM: read-out: % Inhibition 14C-Ac
# Protocol: HepG2 cells obtained from the American Type Culture Collection were routinely passaged in RPMI-1640 plus 10% fetal bovine serum (FBS) and were subcultured into 35 mm diameter wells for experiments. […] The LDS medium supplement was prepared according to Cham et al., J. Lipid Res., 17: 176-181, (1976). After about 16 hours in LDS containing media, test compounds were added in dimetthylsulfoxide vehicle (0.5% v/v final conc.) for the period of time indicated in the data (generally 4 hours). Cholesterol synthesis was then directly determined by the incorporation of 2-14C-acetate (1.8-3.0 mCi/mmol) into digitonin-precipitable sterols essentially as described for the rat hepatocyte methol above. Greater than 97% of the radiolabelled sterol isolated by this procedure was cholesterol as judged by HPLC. Percent inhibition was calculated from the average of duplicates or triplicates vs. controls receiving vehicle.
# (§1) The human hepatoma HepG2 cell culture model was employed to compare the intrinsic activities of the tocotrienols. HepG2 cells were incubated with the indicated compounds for about 4 hours at 10 µM. Cholestrol synthesis was assayed by 14C-acetate incorporation and HMG-CoA reductase suppression was assayed in the isolated microsomal fraction. Cholesterol synthesis inhibition was assayed by 14C-acetate incorporation after preincubation of HepG2 cells with the compounds for about 2 hours or about 4 hours (Example IV). […] As the data in Figure 1 indicate, gamma-tocotrienol has an even greater relative potency compared to alpha-tocotrienol in the HepG2 cell model than in rat hepatocytes. The IC50s from these studies are given in Table 3, in which it can be seen that the intrinsic potency of gamma-tocotrienol is over 30-fold greater than that of alpha-tocotrienol.
# [2] = test system: Cholesterol Synthesis in Isolated Rat Hepatocytes; assay: Rat hepatocyte cholesterol biosynthesis model (14C-acetate incorporation into digitonin-precipitable sterols); type: cell-based; conditions: for inhibition at 210 µg/mL: 210 µg/ml (approx. 500 µM), 60 min 14C-acetate incorporation, 0.2% Tween-80; for inhibition at 250 µg/mL: read-out: % Inhibition at µg/ml conc: 250; for inhibition at 500 µg/mL: read-out: % Inhibition at µg/ml conc: 500; for IC50: read-out: IC₅₀
# Protocol: Primary rat parenchymal hepatocytes were prepared from male Wistar rats (180-220 g) at mid-dark in the diurnal cycle by standard collagenase perfusion method as described previously. Ingebritsen et al. J. Biol. Chem., 254: 9986-9989, (1979). Aliquots of cells were suspended (100 mg in 2 ml) in Eagle's minimum essential medium (MEM) supplemented with 2% bovine albumin, and preincubated in a shaking water bath at about 37° under 95% O₂/5% CO₂ with compounds added as given in the data. […] Following a preincubation of about 15 to about 45 minutes as indicated, cholesterol synthesis in intact cells was assayed by 2-14C-acetate (1.8 mCi/mmol, 0.5 µCi/ml) incorporation for about 30 to about 60 minutes (previously shown to be time-linear) into total digitonin-precipitable sterols. […] Percent inhibition was calculated from the average of duplicates vs. triplicate vehicle controls conducted simultaneously.
# The primary rat hepatocyte assay for cholesterol bio-synthesis inhibition was conducted as described in Example 2 except the preincubation was about 45 minutes and the 14C-acetate incorporation was about 30 minutes. The indicated compounds were purified from the same natural product source as the mixture used in Example 2. […] Two-component mixtures of the constituents separated from the tocotrienol mixture were tested under the conditions indentical to Table 2A.
# [3] = test system: HMG-CoA reductase; assay: HepG2 cell culture model, HMG-CoA reductase suppression assay; type: cell-based, human; conditions: 10 µM, about 4 hours, HepG2 cells
# Protocol: HMG-CoA reductase suppression in HepG2 cells was conducted by growing cells in RPMT-1640 plus 10% FBS on 100 mm plates, and when cells reached approximately 75% confluency, inducing with LDS (as described above) for about 16 hours prior to assays. Compounds were added using dimethylsulfoxide vehicle (0.5% v/v, final) and after about 4 hours of incubation at 37°, cells were harvested by scraping. Cell pellets were rinsed and lysed by sonication in 1.7 ml cold 50 mM imidazole-HCL, pH 7.2, 50 mM NaCl, 10 mM EDTA, 10 mM EGTA, 5 mM DTT, and 40µM leupeptin). Lysates were centriguged at 150 x g and the supernatant was centrifuged at 100,000 x g in a Beckman airfuge to isolate the post-nuclear total membrane fraction. The membranes were resuspended in 50 mM imidazole-HCl, pH 7.2, 250 mM NaCl, 5 mM DTT, and 20µM leupeptin and used for the assay of HMG-CoA reductase activity by the radiochemical procedure as described previously by Parker et al., J. Biol. Chem., 264: 4877-4887, (1989). Values were normalized for protein content by the Lowry method as cited previously (ibid). HMG-CoA reductase percent suppression was calculated as the decrease in specific activity of HMG-CoA reductase for treated cells vs. controls receiving vehicle. Averages of duplicate cell determinations assayed in duplicate were taken.
# as §1
# The mechanism of cholesterol synthesis inhibition by tocotrienols involves down regulation of the limiting enzyme of sterol synthesis, HMG-CoA reductase. […] The suppression of HMG-CoA reductase protein expression by gamma-tocotrienol and delta-tocotrienol in HepG2 cells and in rat liver has been confirmed by immunoassy using the Western blot technique (data not shown).
# [4] = test system: Hepatic HMGCoA Reductase; assay: Acute rat HMGCoA reductase suppression model; type: in vivo; conditions: four hours after administration; for Hepatic HMGCoA Reductase Activity (mean ± SEM): 195 µmol/kg (equivalent to 80 mg/kg Example 24) intragastric in olive oil, vehicle control 479 ± 88; for Hepatic HMGCoA Reductase Activity % of Control: 195 µmol/kg intragastric in olive oil
# Protocol: Using an acute rate model for suppression of hepatic HMGCoA reductase, the effectiveness of three forms of d,l-γ-tocotrienol were compared in vivo. In this assay system, the test agents were administered by intragastric intubation as solutions dissolved in olive oil vehicle. Four hours after administration of test agents, rat liver HMGCoA reductase total activity levels were determined by standard techniques in this laboratory. […]
# [5] = test system: Lipid Metabolism; assay: Lipid metabolism in normocholesterolemic chickens fed compound in diet; type: in vivo; conditions: CCD + 20 ppm per head (text: 50 ppm)
# [6] = test system: platelet aggregation; assay: Rabbit biolaser ear chamber antithrombotic model; type: in vivo; conditions: 100mg/kg oral
# Protocol: The antithrombotic properties of gamma-tocotrienol were evaluated in a rabbit biolaser ear chamber model. Fasted rabbits were orally dosed with either vehicle or vehicle plus gamma-tocotrienol at 100mg/kg. An erythrocyte contained within a capillary, near the ear surface, is ruptured with a laser shot, thereby releasing platelet aggregating ADP. gamma-Tocotrienol inhibited platelet aggregation 37% at about 2 hours after oral dosing, 44% after about 4 hours and 25% after about 6 hours as measured by averaging the mean thrombus area over 10 trials.
# [7] = Pure gamma-tocotrienol capsules in hypercholesterolemic human subjects; type: in vivo; conditions: capsules 50 mg/capsule, after 4 weeks of feeding; serum cholesterol levels 302.5 mg/dl
# [8] = Rattus norvegicus, Hepatocyte, 15 min preincubation
# [9] = Rattus norvegicus, Hepatocyte, Expt. # 1, 45 min preincubation, 30 min incorporation
# [10] = Rattus norvegicus, Hepatocyte, Expt. # 2, 45 min preincubation, 30 min incorporation
molecule,measurement,setting,value
α-Tocotrienol [reference compound],IC50,[1]; 2 hr. Incubation,380 µM
same,Rel. Potency,[1]; 2 hr. Incubation,0.02
same,IC50,[1]; 4 hr. Incubation,94 µM
same,Rel. Potency,[1]; 4 hr. Incubation,0.03
"CC(C)=CCC/C(C)=C/CC/C(C)=C/CCC1(C)CCc2c(C)c(O)c(C)c(C)c2O1 (racemic) [d,1-α-tocotrienol, 3,4-dihydro-2,5,7,8-tetramethyl-2-(4,8,12-trimethyltrideca-3(E),7(E),11-trienyl)-2H-1-benzopyran-6-ol, reference compound]",inhibition at 41 µg/mL,"[2]; Rattus norvegicus, Hepatocyte, 41 µg/ml (approx. 100 µM), 15 min preincubation, 60 min incorporation",4%
same,inhibition at 210 µg/mL,[2]; [8],17%
same,inhibition at 10 µM,"[1]; Homo sapiens, HepG2",20%
same,% Suppression HMG-CoA Reductase,[3],19%
"CC(=O)Oc1cc2c(c(C)c1C)OC(C)(CC/C=C(\C)CC/C=C(\C)CCC=C(C)C)CC2 (racemic) [Ex. 33, 3,4-Dihydro-2,7,8-Trimethyl-2-(4,8,12-Trimethyltrideca-3(E),7(E), 11-trienyl)-2H-1-Benzopyran-6-Yl Acetate]",Hepatic HMGCoA Reductase Activity (mean ± SEM),[4],236 ± 23 mU/mg
same,Hepatic HMGCoA Reductase Activity % of Control,[4],49%
"CC(C)=CCC/C(C)=C/CC/C(C)=C/CC[C@]1(C)CCc2c(C)c(O)c(C)c(C)c2O1 [d-α-tocotrienol, reference compound]",inhibition at 125 µg/mL,"[2]; Rattus norvegicus, Hepatocyte, 125 µg/ml, Expt. # 2, 45 min preincubation, 30 min incorporation, read-out: % Inhibition at µg/ml conc: 125",8%
same,inhibition at 250 µg/mL,[2]; [9],8%
same,inhibition at 250 µg/mL,[2]; [10],20%
same,inhibition at 500 µg/mL,[2]; [9],12%
same,inhibition at 500 µg/mL,[2]; [10],33%
same,IC50,[2]; [9],> 1000 µg/mL
same,IC50,[2]; [10],1300 µg/mL
"3,4-dihydro-2-methyl-2-(4,8,12-trimethyltrideca-3(E),7(E),11-trienyl)-2H-1-benzopyran-6-ol [d,1-Tocotrienol]",% Inhibition 14C-Ac,[1],69%
same,% Suppression HMG-CoA Reductase,[3],62%
"CC(C)=CCC/C(C)=C/CC/C(C)=C/CCC1(C)CCc2cc(OC(=O)c3cccnc3)c(C)c(C)c2O1 (racemic) [Ex. 34, 3,4-Dihydro-2,7,8-Trimethyl-2-(4,8,12-Trimethyl 3(E), 7(E),11-tridecatrienyl)-2H-1 Benzopyran-6-Yl-3-Pyridine Carboxylate]",Hepatic HMGCoA Reductase Activity (mean ± SEM),[4],156 ± 21 mU/mg
same,Hepatic HMGCoA Reductase Activity % of Control,[4],33%
γ-Tocopherol [reference compound],% Inhibition 14C-Ac,[1],3%
same,% Suppression HMG-CoA Reductase,[3],0%
"Cc1c(C)c2c(c(C)c1O)CC[C@@](C)(CCC[C@H](C)CCC[C@H](C)CCCC(C)C)O2 [d-α-tocopherol, reference compound]",IC₅₀,"[2]; Expt. # 1, 45 min preincubation, 30 min incorporation",no inhib
same,inhibition at 210 µg/mL,[2]; [8],0%
same,inhibition at 250 µg/mL,[2]; [9],0%
same,inhibition at 250 µg/mL,[2]; [10],0%
same,inhibition at 500 µg/mL,[2]; [9],2%
same,inhibition at 500 µg/mL,[2]; [10],0%
"CC(C)=CCC/C(C)=C/CC/C(C)=C/CCC1(C)CCc2cc(O)c(C)c(C)c2O1 (racemic) [Ex. 24, 3,4-dihydro-2,7,8-trimethyl-2-(4,8,12-trimethyltrideca-3(E),7(E),11-trienyl)-2H-1-benzopyran-6-ol]",Serum Cholesterol,"[5]; Table 6, synthetic compound, 4 weeks, control 158.8(±9.0)",121.2(±2.2) mg/dl
same,HDL-Cholesterol [% of Control],[5]; Table 6,87.0%
same,LDL-Cholesterol [% of Control],[5]; Table 6,54.8%
same,Serum Cholesterol [% of Control],[5]; Table 6,76.3%
same,Serum Triglycerides [% of Control],[5]; Table 6,100.7%
same,HDL/LDL,"[5]; Table 6, control 1.938",3.080
same,LDL-Cholesterol,"[5]; Table 6, control 52.8 (±1.1)",28.9(±1.2) mg/dl
same,Serum Triglycerides,"[5]; Table 6, control 63.4(±2.1)",63.9(±1.6) mg/dl
same,HDL-Cholesterol,"[5]; Table 6, control 102.3(±3.0)",89.0(±2.9) mg/dl
same,inhibition at 10 µM,"[1]; Homo sapiens, HepG2",75%
same,% Suppression HMG-CoA Reductase,[3],65%
same,Hepatic HMGCoA Reductase Activity (mean ± SEM),[4],266 ± 24 mU/mg
same,Hepatic HMGCoA Reductase Activity % of Control,[4],56%
CC(C)=CCC/C(C)=C/CC/C(C)=C/CCC1(C)CCc2cc(O)c(C)c(C)c2O1 (stereo not shown) [γ-Tocotrienol],times more active than alpha-tocotrienol,[2]; rat and chicken hepatocyte system,at least 5 times
same,inhibited platelet aggregation,"[6]; about 2 hours after dosing, mean thrombus area over 10 trials",37%
same,inhibited platelet aggregation,[6]; about 4 hours after dosing,44%
same,inhibited platelet aggregation,[6]; about 6 hours after dosing,25%
same,decrease in serum cholesterol levels,[7],35%
same,Rel. Potency,[1]; 2 hr. Incubation,1.0
same,Rel. Potency,[1]; 4 hr. Incubation,1.0
same,IC50,"[1]; Homo sapiens, HepG2, 2 hr. Incubation",5.9 µM
same,IC50,"[1]; Homo sapiens, HepG2, 4 hr. Incubation",2.8 µM
same,intrinsic potency greater than that of alpha-tocotrienol,[1]; from IC50s of Table 3,over 30 fold

# From patent EP0421419A2, “Tocotrienols in the treatment of hypercholesterolemia, hyperlipidemia and thromboembolic disorders” (Bristol-Myers Squibb Company, priority 1989, dated 1991)
